Laboratory results taken from US8134007B2, “Pyridine derivatives” (Pfizer Inc., priority 2007, dated 2012).

Key:
Assay type in all cases: cell-based
Human Nav1.5 = biological target: T1, Human Nav1.5 (Homo sapiens, UniProt Q14524); assay: Nav1.5 Assay (VIPR, HEK293 cells); conditions: HEK293 cells expressing Human Nav1.5; average of replicates; read-out: Nav1.5 IC50
T1 construct: expressed in transfected cells; host or cells: HEK293
Procedure: The Nav1.5 assay is performed in HEK293 cells expressing Human Nav1.5 in the same way as the Nav1.8 assay.
Where replicate experiments were conducted resulting in multiple sets of data for a test compound, the data presented represent the average value from all replicate experiments.

[1] = test system: tetrodotoxin-sensitive voltage-gated sodium channels including NaV1.2, NaV1.3 and NaV1.7; assay: TTX-S Assay (VIPR, SHSY-5Y cell line, veratridine opener); conditions: read-out: TTX-S IC50, veratridine 50 μM opener, average of replicates
Human Nav1.8 = biological target: T2, Human Nav1.8 (Homo sapiens, UniProt Q9Y5Y9); assay: VIPR Assay for Nav1.8 Compounds (FRET membrane potential, deltamethrin opener); conditions: VIPR FRET membrane potential assay, deltamethrin opener; average of replicates; read-out: Nav1.8 IC50
T2 construct: expressed in transfected cells; host or cells: HEK293
T2 sequence (Q9Y5Y9 whole entry): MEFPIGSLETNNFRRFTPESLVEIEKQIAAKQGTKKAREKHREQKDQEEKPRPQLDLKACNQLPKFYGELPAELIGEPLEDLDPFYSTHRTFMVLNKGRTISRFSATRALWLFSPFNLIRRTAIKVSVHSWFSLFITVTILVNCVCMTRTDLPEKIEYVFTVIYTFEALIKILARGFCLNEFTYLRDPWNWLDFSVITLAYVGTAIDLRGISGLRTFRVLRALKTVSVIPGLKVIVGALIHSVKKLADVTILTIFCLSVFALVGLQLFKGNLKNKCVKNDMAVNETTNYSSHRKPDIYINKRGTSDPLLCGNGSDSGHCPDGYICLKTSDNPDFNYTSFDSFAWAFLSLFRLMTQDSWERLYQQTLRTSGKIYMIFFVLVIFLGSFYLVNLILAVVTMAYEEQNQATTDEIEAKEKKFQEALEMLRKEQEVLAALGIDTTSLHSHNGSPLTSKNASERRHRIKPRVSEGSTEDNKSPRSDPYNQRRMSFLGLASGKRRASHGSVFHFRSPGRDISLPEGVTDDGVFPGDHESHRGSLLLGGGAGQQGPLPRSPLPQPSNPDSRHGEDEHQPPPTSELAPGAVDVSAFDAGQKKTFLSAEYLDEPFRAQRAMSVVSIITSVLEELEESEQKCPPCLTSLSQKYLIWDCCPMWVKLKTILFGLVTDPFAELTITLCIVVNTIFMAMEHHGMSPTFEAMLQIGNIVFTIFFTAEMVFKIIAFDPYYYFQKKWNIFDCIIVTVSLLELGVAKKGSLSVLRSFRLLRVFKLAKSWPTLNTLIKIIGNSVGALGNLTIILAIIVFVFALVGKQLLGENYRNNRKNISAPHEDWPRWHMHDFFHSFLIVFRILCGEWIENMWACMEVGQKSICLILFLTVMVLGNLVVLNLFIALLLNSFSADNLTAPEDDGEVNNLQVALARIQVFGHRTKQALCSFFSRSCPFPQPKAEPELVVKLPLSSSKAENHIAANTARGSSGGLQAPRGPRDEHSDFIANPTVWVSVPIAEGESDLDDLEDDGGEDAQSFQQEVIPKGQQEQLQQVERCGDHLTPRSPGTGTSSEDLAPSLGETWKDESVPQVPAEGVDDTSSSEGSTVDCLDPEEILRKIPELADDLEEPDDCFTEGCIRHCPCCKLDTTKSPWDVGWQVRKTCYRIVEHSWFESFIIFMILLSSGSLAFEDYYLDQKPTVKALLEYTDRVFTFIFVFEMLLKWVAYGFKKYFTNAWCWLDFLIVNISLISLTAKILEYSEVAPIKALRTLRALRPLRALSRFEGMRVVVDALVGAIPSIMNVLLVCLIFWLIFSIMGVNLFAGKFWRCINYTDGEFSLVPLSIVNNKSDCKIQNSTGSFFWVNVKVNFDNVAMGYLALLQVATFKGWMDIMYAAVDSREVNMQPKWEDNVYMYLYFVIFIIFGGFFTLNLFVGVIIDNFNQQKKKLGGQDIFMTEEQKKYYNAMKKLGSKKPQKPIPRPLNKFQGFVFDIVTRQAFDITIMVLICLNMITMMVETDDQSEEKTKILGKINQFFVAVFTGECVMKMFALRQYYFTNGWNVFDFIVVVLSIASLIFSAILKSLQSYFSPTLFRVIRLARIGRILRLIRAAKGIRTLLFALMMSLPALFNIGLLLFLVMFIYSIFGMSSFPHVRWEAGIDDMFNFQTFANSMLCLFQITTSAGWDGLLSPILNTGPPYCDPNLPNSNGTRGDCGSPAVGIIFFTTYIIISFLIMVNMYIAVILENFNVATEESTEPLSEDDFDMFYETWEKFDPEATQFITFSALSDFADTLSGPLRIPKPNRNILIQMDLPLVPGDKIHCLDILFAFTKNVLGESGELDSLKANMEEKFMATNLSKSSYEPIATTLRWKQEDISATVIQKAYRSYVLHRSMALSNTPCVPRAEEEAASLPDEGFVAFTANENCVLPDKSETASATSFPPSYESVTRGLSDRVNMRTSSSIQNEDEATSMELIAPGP

T1 sequence (Q14524 whole entry): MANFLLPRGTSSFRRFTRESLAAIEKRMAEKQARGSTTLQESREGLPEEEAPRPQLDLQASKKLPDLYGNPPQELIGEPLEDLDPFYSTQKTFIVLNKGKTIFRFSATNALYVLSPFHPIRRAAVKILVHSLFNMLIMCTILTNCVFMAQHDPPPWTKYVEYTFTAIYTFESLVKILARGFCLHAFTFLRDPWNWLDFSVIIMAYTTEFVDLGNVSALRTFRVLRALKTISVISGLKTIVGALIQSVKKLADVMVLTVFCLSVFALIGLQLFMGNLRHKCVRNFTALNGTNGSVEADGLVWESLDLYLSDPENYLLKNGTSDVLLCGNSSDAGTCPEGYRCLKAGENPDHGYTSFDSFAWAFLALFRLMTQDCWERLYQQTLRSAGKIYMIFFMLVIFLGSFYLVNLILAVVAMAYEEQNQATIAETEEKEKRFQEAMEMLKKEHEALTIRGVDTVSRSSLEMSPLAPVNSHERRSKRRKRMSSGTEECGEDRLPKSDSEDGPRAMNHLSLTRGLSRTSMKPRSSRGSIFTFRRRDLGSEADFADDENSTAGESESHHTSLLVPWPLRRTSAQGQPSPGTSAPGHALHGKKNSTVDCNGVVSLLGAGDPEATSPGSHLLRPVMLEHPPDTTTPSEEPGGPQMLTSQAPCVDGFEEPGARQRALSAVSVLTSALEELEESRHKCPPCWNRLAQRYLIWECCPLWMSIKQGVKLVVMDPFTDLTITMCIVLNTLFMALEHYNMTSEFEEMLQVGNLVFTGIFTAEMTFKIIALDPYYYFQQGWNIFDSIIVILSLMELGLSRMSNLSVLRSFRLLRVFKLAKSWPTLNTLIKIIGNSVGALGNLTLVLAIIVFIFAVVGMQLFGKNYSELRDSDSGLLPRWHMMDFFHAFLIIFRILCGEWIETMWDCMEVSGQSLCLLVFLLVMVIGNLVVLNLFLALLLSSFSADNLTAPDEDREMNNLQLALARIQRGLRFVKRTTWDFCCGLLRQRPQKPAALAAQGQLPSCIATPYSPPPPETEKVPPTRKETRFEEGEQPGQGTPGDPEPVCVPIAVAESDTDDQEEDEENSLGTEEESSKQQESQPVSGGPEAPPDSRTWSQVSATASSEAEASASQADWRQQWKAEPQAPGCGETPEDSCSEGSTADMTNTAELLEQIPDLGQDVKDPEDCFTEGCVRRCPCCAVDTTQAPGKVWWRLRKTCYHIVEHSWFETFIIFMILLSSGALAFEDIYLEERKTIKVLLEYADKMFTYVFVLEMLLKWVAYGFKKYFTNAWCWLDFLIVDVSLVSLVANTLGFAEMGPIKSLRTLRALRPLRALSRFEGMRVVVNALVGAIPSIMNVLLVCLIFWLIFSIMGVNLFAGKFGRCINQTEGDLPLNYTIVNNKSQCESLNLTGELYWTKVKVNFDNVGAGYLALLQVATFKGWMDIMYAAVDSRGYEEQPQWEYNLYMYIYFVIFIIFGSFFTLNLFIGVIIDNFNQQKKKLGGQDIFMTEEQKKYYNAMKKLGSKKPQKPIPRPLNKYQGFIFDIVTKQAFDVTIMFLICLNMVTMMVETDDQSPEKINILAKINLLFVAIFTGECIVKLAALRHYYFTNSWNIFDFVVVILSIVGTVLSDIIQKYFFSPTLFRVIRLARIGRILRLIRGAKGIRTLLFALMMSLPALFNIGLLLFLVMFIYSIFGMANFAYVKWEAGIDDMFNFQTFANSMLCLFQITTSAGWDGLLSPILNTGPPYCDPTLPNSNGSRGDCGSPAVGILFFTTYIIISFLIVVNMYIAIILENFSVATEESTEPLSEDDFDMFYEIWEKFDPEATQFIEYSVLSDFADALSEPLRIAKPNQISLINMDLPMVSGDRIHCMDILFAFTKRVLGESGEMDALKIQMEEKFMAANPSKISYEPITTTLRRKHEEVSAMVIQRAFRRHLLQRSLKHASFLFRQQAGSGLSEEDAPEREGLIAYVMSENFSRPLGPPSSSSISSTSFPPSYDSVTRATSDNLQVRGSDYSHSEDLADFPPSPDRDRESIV

SMILES | IC50 (Human Nav1.5) [µM] | IC50 [1] [µM] | IC50 (Human Nav1.8) [nM]
CCn1nccc1C(=O)Nc1ccc(-c2cc(OC)ccc2Cl)c(N)n1 [Example 52, N-[6-Amino-5-(2-chloro-5-methoxyphenyl)pyridin-2-yl]-1-ethyl-1H-pyrazole-5-carboxamide] | 16 | 6.4 | 950
Cc1nocc1C(=O)Nc1ccc(-c2cc(OC(F)(F)F)ccc2F)c(N)n1 [Example 36, N-{6-Amino-5-[2-fluoro-5-(trifluoromethoxy)phenyl]pyridin-2-yl}-3-methylisoxazole-4-carboxamide] | 6.4 | 2.2 | 1300
COCc1cc(C(=O)Nc2ccc(-c3ccccc3OC(F)(F)F)c(N)n2)on1 [Example 94] | 31 | 19 | > 32000
Nc1nc(NC(=O)c2conc2C(F)(F)F)ccc1-c1ccccc1OC(F)(F)F [Example 112] | 7.7 | 4.5 | 940
COc1ccc(Cl)c(-c2ccc(NC(=O)c3cnnn3C)nc2N)c1 [Example 83, N-[6-Amino-5-(2-chloro-5-methoxyphenyl)pyridin-2-yl]-1-methyl-1H-1,2,3-triazole-5-carboxamide] | 4.1 | 12 | 3300
COCc1cc(C(=O)Nc2ccc(-c3cc(F)ccc3Cl)c(N)n2)on1 [Example 96] | 7.1 | 12 | 5900
CCn1nccc1C(=O)Nc1ccc(-c2cc(OC(F)(F)F)ccc2F)c(N)n1 [Example 64, N-{6-Amino-5-[2-fluoro-5-(trifluoromethoxy)phenyl]pyridin-2-yl}-1-ethyl-1H-pyrazole-5-carboxamide] | 14 | 3.7 | 5000
Cc1nonc1C(=O)Nc1ccc(-c2cc(F)ccc2Cl)c(N)n1 [Example 47, N-[6-Amino-5-(2-chloro-5-fluorophenyl)pyridin-2-yl]-4-methyl-1,2,5-oxadiazole-3-carboxamide] | 7.4 | 6.1 | 1400
Cc1nonc1C(=O)Nc1ccc(-c2ccccc2OC(F)(F)F)c(N)n1 [Example 50, N-{6-Amino-5-[2-(trifluoromethoxy)phenyl]pyridin-2-yl}-4-methyl-1,2,5-oxadiazole-3-carboxamide] | 19 | 9.8 | 3100
Cn1nccc1C(=O)Nc1ccc(-c2ccccc2C(F)(F)F)c(N)n1 [Example 14, N-{6-Amino-5-[2-(trifluoromethyl)phenyl]pyridin-2-yl}-1-methyl-1H-pyrazole-5-carboxamide] | > 32 | > 32 | 8400
Cc1oncc1C(=O)Nc1ccc(-c2ccccc2OC(F)(F)F)c(N)n1 [Example 23, N-{6-Amino-5-[2-(trifluoromethoxy)phenyl]pyridin-2-yl}-5-methylisoxazole-4-carboxamide] | 17 | 9.4 | 1600
Cc1nocc1C(=O)Nc1ccc(-c2cc(F)ccc2O)c(N)n1 [Example 128] | > 32 | > 32 | 15000
Cc1nocc1C(=O)Nc1ccc(-c2cc(F)ccc2Cl)c(N)n1 [Example 41, N-[6-Amino-5-(2-chloro-5-fluorophenyl)pyridin-2-yl]-3-methylisoxazole-4-carboxamide] | 12 | 11 | 250
Cn1nccc1C(=O)Nc1ccc(-c2cc(F)ccc2Cl)c(N)n1 [Example 6, N-[6-Amino-5-(2-chloro-5-fluorophenyl)pyridin-2-yl]-1-methyl-1H-pyrazole-5-carboxamide] | 13 | 23 | 1100
Cn1nccc1C(=O)Nc1ccc(-c2cccc(F)c2Cl)c(N)n1 [Example 13, N-[6-Amino-5-(2-chloro-3-fluorophenyl)pyridin-2-yl]-1-methyl-1H-pyrazole-5-carboxamide] | > 32 | > 32 | 8800
Cc1nocc1C(=O)Nc1ccc(-c2cc(OC(F)(F)F)ccc2Cl)c(N)n1 [Example 37, N-{6-Amino-5-[2-chloro-5-(trifluoromethoxy)phenyl]pyridin-2-yl}-3-methylisoxazole-4-carboxamide] | 3.6 | 1.2 | 440
Cc1nocc1C(=O)Nc1ccc(-c2cc(Cl)ccc2OC(F)(F)F)c(N)n1 [Example 32, N-{6-Amino-5-[5-chloro-2-(trifluoromethoxy)phenyl]pyridin-2-yl}-3-methylisoxazole-4-carboxamide] | 7.8 | 2.6 | 640
Cc1nocc1C(=O)Nc1ccc(-c2ccccc2C(F)(F)F)c(N)n1 [Example 2, N-{6-Amino-5-[2-(trifluoromethyl)phenyl]pyridin-2-yl}-3-methylisoxazole-4-carboxamide] | > 32 | 30 | 1700
Cn1nccc1C(=O)Nc1ccc(-c2cccc(Cl)c2Cl)c(N)n1 [Example 9, N-[6-Amino-5-(2,3-dichlorophenyl)pyridin-2-yl]-1-methyl-1H-pyrazole-5-carboxamide] | 27 | > 32 | 4200
Cn1nccc1C(=O)Nc1ccc(-c2cc(OC(F)(F)F)ccc2Cl)c(N)n1 [Example 18, N-{6-Amino-5-[2-chloro-5-(trifluoromethoxy)phenyl]pyridin-2-yl}-1-methyl-1H-pyrazole-5-carboxamide] | 8.5 | 1.8 | 1600
Cc1nocc1C(=O)Nc1ccc(-c2cc(Cl)cc(Cl)c2)c(N)n1 [Example 31, N-[6-Amino-5-(3,5-dichlorophenyl)pyridin-2-yl]-3-methylisoxazole-4-carboxamide] | 30 | 20 | 3900
COc1cc(Cl)cc(-c2ccc(NC(=O)c3conc3C)nc2N)c1Cl [Example 27, N-[6-Amino-5-(2,5-dichloro-3-methoxyphenyl)pyridin-2-yl]-3-methylisoxazole-4-carboxamide] | 10 | 3.2 | 370
N#Cc1cccc(C(=O)Nc2ccc(-c3ccccc3OC(F)(F)F)c(N)n2)c1 [Example 106, N-{6-Amino-5-[2-(trifluoromethoxy)phenyl]pyridin-2-yl}-3-cyanobenzamide] | 16 | 8.1 | 5300
Cc1oncc1C(=O)Nc1ccc(-c2ccccc2Cl)c(N)n1 [Example 20, N-[6-Amino-5-(2-chlorophenyl)pyridin-2-yl]-5-methylisoxazole-4-carboxamide] | 17 | 14 | 1000
CCn1nccc1C(=O)Nc1ccc(-c2ccccc2OC(F)(F)F)c(N)n1 [Example 59, N-{6-Amino-5-[2-(trifluoromethoxy)phenyl]pyridin-2-yl}-1-ethyl-1H-pyrazole-5-carboxamide] | 31 | 17 | 3600
CC(C)n1nccc1C(=O)Nc1ccc(-c2ccccc2OC(F)(F)F)c(N)n1 [Example 68, N-{6-Amino-5-[2-(trifluoromethoxy)phenyl]pyridin-2-yl}-1-isopropyl-1H-pyrazole-5-carboxamide] | 17 | 5 | 3900
